What all share (format): cell-based
The target of one test is T1, hASCT1 (Homo sapiens, UniProt P43007).
T1 construct: expressed in transfected cells; host or cells: HEK293 (ATCC CRL-11268), transient transfection
T1 sequence (P43007 1-532): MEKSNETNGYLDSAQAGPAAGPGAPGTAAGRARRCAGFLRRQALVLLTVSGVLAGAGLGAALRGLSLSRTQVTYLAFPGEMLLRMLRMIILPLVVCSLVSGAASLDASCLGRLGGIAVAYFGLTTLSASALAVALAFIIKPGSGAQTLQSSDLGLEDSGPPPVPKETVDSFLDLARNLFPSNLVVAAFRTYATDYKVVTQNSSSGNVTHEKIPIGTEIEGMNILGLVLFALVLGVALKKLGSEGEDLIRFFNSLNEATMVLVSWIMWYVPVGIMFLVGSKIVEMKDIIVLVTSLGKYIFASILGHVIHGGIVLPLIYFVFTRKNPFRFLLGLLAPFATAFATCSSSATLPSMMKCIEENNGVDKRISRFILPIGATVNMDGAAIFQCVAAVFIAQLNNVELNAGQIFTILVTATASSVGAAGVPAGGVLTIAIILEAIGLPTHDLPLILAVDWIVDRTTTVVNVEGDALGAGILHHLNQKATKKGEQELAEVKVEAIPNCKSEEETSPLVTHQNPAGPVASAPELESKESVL
Kind of test: Electrophysiology (whole-cell current recording) of transfected HEK293 cells, hASCT1. The method, then:
(§1) Human embryonic kidney 293 (HEK293, ATCC CRL-11268) cells were cultured in DMEM media supplemented with 10% (v v) fetal bovine serum (FBS), 2 mM glutamine, 1% penicillin streptomycin solution, 1 mM sodium pyruvate and non-essential amino acids. Cells were maintained at 37° C. in a fully humidified atmosphere containing 5% CO2. rASCT2, hASCT2, hASCT1, EAAT1, EAAT2, EAAC1, EAAT5 and YFP complementary DNAs were each used to transiently transfect HEK293 using POLYPLUS Jet-prime transfection reagent. Cells were analyzed using electrophysiological techniques 24-40 hours after transfection.
(§2) Stock solutions of inhibitor was prepared in dimethyl sulfoxide (DMSO) up to 100 mM. Dilutions to working concentrations were made using external buffer. […] For rASCT2, hASCT2 and hASCT1, external buffer contained 140 mM NaCl, 2 mM MgCl2, 2 mM CaCl2), and 10 mM HEPES, pH 7.40 while internal pipette solution comprised of 130 mM NaSCN, 2 mM MgCl2, 10 mM EGTA, 10 mM HEPES and 10 mM alanine, pH 7.40. For specificity experiments with EAAT1, EAAT2, EAAC1 and EAAT5, internal solution contained 10 mM glutamate instead of alanine. Compounds were applied to HEK293 cells expressing DNA of interest suspended from a current recording electrode in whole cell configuration through a rapid solution exchange device. Cells are immersed in external buffer bath used to dissolve the inhibitors. The open pipette resistance was between 3 and 6 MΩ. Series resistance was not compensated in these experiments due to relatively small currents. Currents traces were recorded using an Adams and List EPC7 amplifier and digitized using a Molecular Devices Digidata A/D converter.
(§3) Linear and nonlinear curve fitting of the experimental data were analyzed using MicroCal Origin software. Nonlinear dose-response relationships were fitted with a Michaelis-Menten-like equation to obtain apparent Ki values in the absence of substrate (see TABLE 2 for Ki values). The figures show representative current traces and dose-response curves for hACST2 and rASCT2, used to obtain Ki values in TABLE 2 for compound SN 40. At least four experiments were performed with at least three different cells. Error bars in all graphs, e.g., in FIG. 1B and FIG. 1C and tables (Ki values) represent mean±SD.

Test [1] concerns the target T2, rASCT2 (Rattus norvegicus, UniProt D3ZJ25).
T2 construct: expressed in transfected cells; host or cells: HEK293 (ATCC CRL-11268), transient transfection
T2 sequence (D3ZJ25 1-555): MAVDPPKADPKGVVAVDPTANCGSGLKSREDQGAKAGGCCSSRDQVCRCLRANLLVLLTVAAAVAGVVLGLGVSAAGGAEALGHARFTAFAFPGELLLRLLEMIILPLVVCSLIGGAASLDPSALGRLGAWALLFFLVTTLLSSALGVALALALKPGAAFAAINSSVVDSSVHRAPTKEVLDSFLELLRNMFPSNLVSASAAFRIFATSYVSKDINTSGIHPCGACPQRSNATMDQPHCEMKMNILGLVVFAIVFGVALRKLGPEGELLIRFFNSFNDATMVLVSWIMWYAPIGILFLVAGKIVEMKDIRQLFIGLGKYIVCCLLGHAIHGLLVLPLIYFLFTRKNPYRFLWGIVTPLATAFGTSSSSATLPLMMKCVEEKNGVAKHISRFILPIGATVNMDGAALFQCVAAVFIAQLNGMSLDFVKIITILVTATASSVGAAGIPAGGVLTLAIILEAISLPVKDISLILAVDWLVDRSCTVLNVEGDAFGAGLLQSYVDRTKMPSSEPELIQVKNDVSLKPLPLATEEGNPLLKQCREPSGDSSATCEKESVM
In words: Electrophysiology (whole-cell current recording) of transfected HEK293 cells, rASCT2. Here is the method:
as §1, §2, §3

For test [2], the target named is T3, hASCT2 (Homo sapiens, UniProt Q15758).
T3 construct: expressed in transfected cells; host or cells: HEK293 (ATCC CRL-11268), transient transfection
T3 sequence (Q15758 1-541): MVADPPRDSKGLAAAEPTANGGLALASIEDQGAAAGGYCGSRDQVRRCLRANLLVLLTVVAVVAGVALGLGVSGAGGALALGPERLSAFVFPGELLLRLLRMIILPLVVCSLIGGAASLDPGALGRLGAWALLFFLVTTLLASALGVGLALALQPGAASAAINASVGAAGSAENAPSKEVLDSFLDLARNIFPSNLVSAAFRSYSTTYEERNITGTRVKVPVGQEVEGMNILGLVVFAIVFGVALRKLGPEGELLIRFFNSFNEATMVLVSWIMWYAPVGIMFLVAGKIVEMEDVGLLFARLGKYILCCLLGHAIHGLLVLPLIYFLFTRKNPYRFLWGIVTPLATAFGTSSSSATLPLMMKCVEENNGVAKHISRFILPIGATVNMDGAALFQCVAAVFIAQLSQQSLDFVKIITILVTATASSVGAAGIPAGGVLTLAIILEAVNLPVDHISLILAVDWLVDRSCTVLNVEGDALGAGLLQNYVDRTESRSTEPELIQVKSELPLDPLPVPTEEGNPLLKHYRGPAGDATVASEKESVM
Kind of test: Electrophysiology (whole-cell current recording) of transfected HEK293 cells, hASCT2. The method, then: as §1, §2, §3

For a further test, the target named is T4, EAAT1 (Homo sapiens, UniProt P43003).
T4 construct: expressed in transfected cells; host or cells: HEK293 (ATCC CRL-11268), transient transfection
Kind of test: Electrophysiology specificity experiment in transfected HEK293 cells, EAAT1. Conditions: apparent Ki, HEK293, internal solution 10 mM glutamate, mean ± SD. Here is the method:
as §1, §2, §3

The target in another test is T5, EAAT5 (Homo sapiens, UniProt O00341).
T5 construct: expressed in transfected cells; host or cells: HEK293 (ATCC CRL-11268), transient transfection
In words: Electrophysiology specificity experiment in transfected HEK293 cells, EAAT5. The settings on record: apparent Ki, HEK293, internal solution 10 mM glutamate, mean ± SD. The method, then: as §1, §2, §3

Test [3] has as its target T3, hASCT2. Kind of test: Competition experiment with alanine, hASCT2. Conditions: 1 mM ala, first entry of the cell; for Ki: read-out: Competition Expt (h/rASCT2 Ki): hASCT2 Ki.
Test [4] addresses T2, rASCT2. In words: Competition experiment with alanine, rASCT2. The settings on record: 1 mM ala, second entry of the cell; for Ki: read-out: Competition Expt (h/rASCT2 Ki): rASCT2 Ki.
A further test deals with T6, EAAT2 (Homo sapiens, UniProt P43004).
T6 construct: expressed in transfected cells; host or cells: HEK293 (ATCC CRL-11268), transient transfection
In words: Electrophysiology specificity experiment in transfected HEK293 cells, EAAT2. Here is the method:
as §1, §2, §3

In another test the target is T7, EAAC1 (UniProt P51907).
T7 construct: Ki EAAC1; other: apparent Ki, HEK293, internal solution 10 mM glutamate, mean ± SD
T7 sequence (P51907 1-523): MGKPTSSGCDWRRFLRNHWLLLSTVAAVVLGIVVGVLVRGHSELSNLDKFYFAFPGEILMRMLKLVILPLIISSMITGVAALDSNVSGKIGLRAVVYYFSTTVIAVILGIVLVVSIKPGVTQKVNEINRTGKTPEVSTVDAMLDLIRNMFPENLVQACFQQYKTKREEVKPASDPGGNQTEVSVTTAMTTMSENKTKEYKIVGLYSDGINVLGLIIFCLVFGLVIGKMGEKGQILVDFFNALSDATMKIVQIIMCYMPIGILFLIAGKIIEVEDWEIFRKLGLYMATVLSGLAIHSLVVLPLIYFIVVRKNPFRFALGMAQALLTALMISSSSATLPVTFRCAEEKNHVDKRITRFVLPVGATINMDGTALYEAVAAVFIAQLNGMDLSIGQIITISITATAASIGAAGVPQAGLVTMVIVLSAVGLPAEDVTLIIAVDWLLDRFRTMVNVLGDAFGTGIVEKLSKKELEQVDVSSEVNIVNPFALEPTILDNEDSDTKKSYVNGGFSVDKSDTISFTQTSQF
Kind of test: Electrophysiology specificity experiment in transfected HEK293 cells, EAAC1. Conditions: apparent Ki, HEK293, internal solution 10 mM glutamate, mean ± SD. The method, then: Cells were maintained at 37° C. in a fully humidified atmosphere containing 5% CO2. rASCT2, hASCT2, hASCT1, EAAT1, EAAT2, EAAC1, EAAT5 and YFP complementary DNAs were each used to transiently transfect HEK293 using POLYPLUS Jet-prime transfection reagent. Cells were analyzed using electrophysiological techniques 24-40 hours after transfection.
as §2
Linear and nonlinear curve fitting of the experimental data were analyzed using MicroCal Origin software. Nonlinear dose-response relationships were fitted with a Michaelis-Menten-like equation to obtain apparent Ki values in the absence of substrate (see TABLE 2 for Ki values). […] At least four experiments were performed with at least three different cells. Error bars in all graphs, e.g., in FIG. 1B and FIG. 1C and tables (Ki values) represent mean±SD.

The mark [5] stands for this setting: apparent Ki in the absence of substrate, HEK293, mean ± SD, read-out: Ki rASCT2.
The mark [6] stands for this setting: apparent Ki in the absence of substrate, HEK293, mean ± SD, read-out: Ki hASCT2.
Where [7] appears, read: Table 3, dihydroxyproline derivatives, read-out: Ki All DNA: rASCT2.
Where [8] appears, read: Table 3, dihydroxyproline derivatives, read-out: Ki All DNA: hASCT2.

Like-named read-outs stand apart in the source and are kept apart here.

T4 sequence (P43003 whole entry, species assumed): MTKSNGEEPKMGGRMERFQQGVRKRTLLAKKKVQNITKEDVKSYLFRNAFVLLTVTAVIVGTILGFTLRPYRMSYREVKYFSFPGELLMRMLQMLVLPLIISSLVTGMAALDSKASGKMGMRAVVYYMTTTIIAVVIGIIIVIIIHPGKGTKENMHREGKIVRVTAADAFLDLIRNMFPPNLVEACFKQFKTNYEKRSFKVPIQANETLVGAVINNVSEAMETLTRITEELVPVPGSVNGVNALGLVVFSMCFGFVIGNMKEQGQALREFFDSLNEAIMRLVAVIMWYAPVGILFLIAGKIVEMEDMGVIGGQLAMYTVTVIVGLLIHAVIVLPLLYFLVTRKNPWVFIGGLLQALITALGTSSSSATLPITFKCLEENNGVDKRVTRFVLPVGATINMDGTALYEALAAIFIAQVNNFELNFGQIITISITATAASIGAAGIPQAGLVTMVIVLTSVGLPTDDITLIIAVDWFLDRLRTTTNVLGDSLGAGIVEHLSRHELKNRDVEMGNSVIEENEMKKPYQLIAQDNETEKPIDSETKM
T6 sequence (P43004 whole entry, species assumed): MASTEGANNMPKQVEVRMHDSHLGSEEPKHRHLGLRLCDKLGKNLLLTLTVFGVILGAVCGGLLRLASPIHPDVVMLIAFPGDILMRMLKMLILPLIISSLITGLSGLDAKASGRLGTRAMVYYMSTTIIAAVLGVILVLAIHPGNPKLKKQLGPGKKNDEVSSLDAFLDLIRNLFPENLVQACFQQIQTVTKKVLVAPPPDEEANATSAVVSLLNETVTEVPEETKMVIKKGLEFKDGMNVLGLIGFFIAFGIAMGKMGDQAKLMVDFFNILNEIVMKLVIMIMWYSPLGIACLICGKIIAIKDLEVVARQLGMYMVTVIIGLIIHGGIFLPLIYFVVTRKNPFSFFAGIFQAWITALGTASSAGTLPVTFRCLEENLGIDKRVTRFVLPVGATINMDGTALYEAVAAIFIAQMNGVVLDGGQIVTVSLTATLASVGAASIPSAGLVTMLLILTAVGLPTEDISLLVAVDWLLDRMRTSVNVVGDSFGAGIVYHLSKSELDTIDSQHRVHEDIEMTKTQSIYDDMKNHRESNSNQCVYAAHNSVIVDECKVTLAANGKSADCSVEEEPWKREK
T5 sequence (O00341 whole entry, species assumed): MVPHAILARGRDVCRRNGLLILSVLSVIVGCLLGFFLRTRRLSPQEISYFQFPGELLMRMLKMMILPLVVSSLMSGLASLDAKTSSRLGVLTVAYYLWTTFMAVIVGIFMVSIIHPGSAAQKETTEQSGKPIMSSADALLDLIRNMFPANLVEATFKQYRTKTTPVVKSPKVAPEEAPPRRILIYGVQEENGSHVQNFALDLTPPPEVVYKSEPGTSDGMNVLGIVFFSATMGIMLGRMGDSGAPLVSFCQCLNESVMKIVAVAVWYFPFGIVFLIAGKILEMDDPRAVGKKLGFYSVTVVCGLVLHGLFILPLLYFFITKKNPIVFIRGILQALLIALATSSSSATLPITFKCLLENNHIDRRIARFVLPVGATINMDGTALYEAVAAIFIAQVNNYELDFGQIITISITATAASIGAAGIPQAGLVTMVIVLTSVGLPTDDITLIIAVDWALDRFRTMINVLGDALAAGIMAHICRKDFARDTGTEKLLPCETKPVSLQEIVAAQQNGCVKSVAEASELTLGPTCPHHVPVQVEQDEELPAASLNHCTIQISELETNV

With `O=C(Nc1cccc(C(=O)O[C@@H]2CN[C@H](C(=O)O)C2)c1)c1ccccc1` [SN 16], the Ki at hASCT1 (apparent Ki in the absence of substrate, HEK293, mean ± SD, read-out: Ki hASCT1) was determined as 10.1 ± 0.6 µM; on rASCT2 [1] (setting [5]) it was 0.11 ± 0.04 µM; at hASCT2 [2] (setting [6]) it was 0.39 ± 0.1 µM; on EAAT1, 49.4 ± 9.7 µM; at EAAT5, 566 ± 188 µM.

With `O=C(OC[C@@]1(O)CN[C@H](C(=O)O)C1)c1ccc(-c2ccc(C(F)(F)F)cc2)cc1` [SN59], the Ki amounted to 0.002 µM on hASCT1 (Table 3, dihydroxyproline derivatives, read-out: Ki All DNA: hASCT1); 0.005 µM at rASCT2 [1] (setting [7]); 3.24 µM at hASCT2 [2] (setting [8]); 19.4 µM on hASCT2 [3]; 0.15 µM at rASCT2 [4]. Also, the “Competition Expt % block (given as a decimal): hASCT2” value at hASCT2 [3] is listed as “full”. In addition, at rASCT2 [4], the “Competition Expt % block (given as a decimal): rASCT2” value is on record as “full”.

In the case of `O=C(O)[C@@H]1C[C@H](NCc2ccc(-c3ccccc3)cc2)CN1` [SN 40], the Ki on rASCT2 [1] (setting [5]) was determined as 7.29 ± 1.8 µM; on hASCT2 [2] (setting [6]) it was 2.42 ± 0.1 µM; at EAAT1, 2.94 ± 0.4 µM; at EAAT2 (apparent Ki, HEK293, internal solution 10 mM glutamate, mean ± SD, read-out: Ki EAAT2) it was 5.55 ± 1.7 µM; on EAAC1 it was 24.4 ± 2.5 µM; on EAAT5, 5.55 ± 0.7 µM.

Take `O=C(O[C@]1(CO)CN[C@H](C(=O)O)C1)c1ccc(-c2ccccc2)cc1` [SN73]: the Ki at rASCT2 [1] (setting [7]) worked out at 8.03 µM; at hASCT2 [2] (setting [8]), 4.25 µM; at EAAT2 (Table 3, dihydroxyproline derivatives, read-out: Ki All DNA: EAAT2), 21.4 µM; on hASCT2 [3], 22.3 µM. Besides, the “Competition Expt % block (given as a decimal): hASCT2” value on hASCT2 [3] is “full”.

For `O=C(OC[C@]1(O)CN[C@H](C(=O)O)C1)c1ccc(-c2ccc(F)cc2)cc1` [SN66], the Ki on rASCT2 [1] (setting [7]) came to 27.6 µM; at hASCT2 [2] (setting [8]), 15.5 µM; on hASCT2 [3] it was 28 µM; on rASCT2 [4], 49 µM.

The record behind these values is US20230416199A1, “INHIBITORS OF AMINO ACID TRANSPORT” (ICAHN SCHOOL OF MEDICINE AT MOUNT SINAI, priority 2020, published 2023).
